The values below come from patent publication US20140072629A1, “BIOLOGIC MATRICES COMPRISING ANTI-INFECTIVE, METHODS AND COMPOSITIONS RELATED THERETO” (MUSCULOSKELETAL TRANSPLANT FOUNDATION, priority 2008, published 2014).

Where two headings read alike, the source gives them in different places.

The conditions of series [1]: cited from earlier work.
Series [2] is described as follows: Solubility / saturation point of Triclosan in alcohol and water. It is filed as physicochemical. An excerpt: In particular embodiments, an alcohol solution comprising triclosan is delivered to a hydrated acellular biologic matrix, e.g., a biologic matrix treated with a 40% SDA solution. In other embodiments, the matrix is hydrated with e.g., water, saline solution, and the like. Without being bound to theory, it is thought that the triclosan will partially separate from the alcohol phase due to the triclosan's great differential solubility (alcohol soluble and water insoluble) and deposit as an undissolved agent on the surface of and within the biologic tissue. Therefore, after implantation of the triclosan-treated biologic tissue into a subject, the triclosan will slowly exude or leach off the biologic tissue and out of the alcohol layer directly into the wound zone where bacteria may be collecting. Moreover, some of the triclosan may be held by the insoluble water phase and assist in this slow release. In this regard, where the soluble form of triclosan in alcohol would typically be active right away and dissipate within 8-12 hours in a transplant subject, such as a human abdominal hernia patient, it is thought that the precipitated triclosan in a transplanted treated acellular matrix of the subject invention will reside longer at the wound site, e.g., up to about 24-48 hours after transplantation, thereby increasing the effective amount of anti-infective available at the wound site. […]

`Oc1cc(Cl)ccc1Oc1ccc(Cl)cc1Cl` [Triclosan, 2,4,4′-trichloro-2′-hydroxy-diphenyl-ether]: the “solubility, in words” value is given as “very soluble” in series [1] (in alcohol) and “very insoluble” in series [1] (in water). Besides, the saturation point in series [2] (25% alcohol) turned out to be 600 ppm; in series [2] (30% alcohol) it was 1700 ppm.
